We go through 69 molecules from patent US11001563B2, “SSAO inhibitor” (SHANDONG DANHONG PHARMACEUTICAL CO., LTD., priority 2017, dated 2021).

The target in assay [1] is T1, VAP-1/SSAO (Homo sapiens (Human), UniProt Q16853). Briefly: Human VAP-1 enzyme activity assay (Amplex Red Monoamine Oxidase kit). Format: biochemical. Conditions: 10 nM VAP-1 enzyme, 30 min preincubation, benzylamine substrate; read-out: Human Recombinant VAP-1/SSAO Enzyme Inhibitory Activity IC50. The protocol: Human VAP-1 enzyme activity assay:
The inhibition of the sample on VAP-enzyme activity was measured by using an Amplex® Red Monoamine Oxidase kit (Invitrogen #A12214). 100 nL of the gradiently-diluted to-be-tested compound (solvent DMSO) was added to a 384-well plate. 25 μL of 10 nM VAP-1 enzyme solution was added and incubated for 30 minutes at room temperature. A substrate mixture of VAP-1 enzyme (200 μM Amplex Red, 1 U/mL HRP, 1 mM Benzylamine) was added and incubated for 60 minutes at room temperature. After the incubation, the fluorescent signal was read with a microplate reader Envision (excitation light wavelength 530-560 nm, emission light wavelength 590 nm). The fluorescence signal value after the background signal was removed was analyzed by Prism software, and the IC50 of the sample against the VAP-1 enzyme was calculated.

The target of assay [2] is T1, VAP-1/SSAO. Briefly: VAP-1 cell activity assay (HUVEC or CHO cells transfected with VAP-1/pCDNA (3.1) plasmid, Amplex Red). In kind it is cell-based. Conditions: HUVEC or CHO cells transfected with VAP-1 plasmid; read-out: VAP-1/SSAO Cellular Inhibitory Activity IC50. The protocol:
The inhibition of the sample on VAP-1 cell activity was measured by using an Amplex® Red Monoamine Oxidase kit (Invitrogen #A12214).
The cultured HUVEC or CHO cells were plated into a 6-well plate at a density of 0.8 M/well, placed in a 37° C., 5% CO2 incubator for incubation for 24 hours, and then the cells was transferred with a Lipo2000 reagent and a VAP-1/pCDNA (3.1) plasmid, and liquid was changed for the cells after 5 hours (Lipo2000 was toxic to the cells); after 24 hours, the cells were digested and plated into 384-well plates with a density of 25 μl, 10000 cells/well, and liquid was replaced with medium without FBS for the cells after 6-7 hours, and the cell plates were incubated overnight at 37° C. in a 5% CO2 incubator.
1) Dilution of the compound: serial dilution in 4× gradient was carried out with 100% DMSO, 10 points were diluted, the starting concentration of the to-be-tested compound was 0.5 mM (final concentration was 1 μM); 100 nl of compound solution was transferred to a 384-well cell assay plate with ECHO. Negative control wells: 100 nl of DMSO; background control wells: 100 nl DMSO+25 μL medium.
2) The reaction was carried out in the dark at room temperature for 30 min.
3) Preparation of Amplex Red reagent+HRP+benzylamine substrate working solution: Amplex Red reagent+HRP+benzylamine substrate working solution (200 μM Amplex Red reagent+1 U/mL HRP+1 mM benzylamine): 45 μl of 20 mM Amplex Red reagent mother solution, 22.5 μl of 200 U/ml horseradish peroxidase (HRP) mother solution and 45 ul of 100 mM benzylamine were tanken and added to 4.3875 ml of 1× reaction buffer.
4) After 30 min, 25 μl of the substrate working solution was added to a 384-well plate, and a final concentration was 100 μM Amplex Red reagent+0.5 U/mL HRP+0.5 mM benzylamine, respectively.
5) The reaction was carried out in the dark at room temperature for 60 minutes, and the fluorescence value was measured by Envision: the excitation wave was 535 nm, and the emission wave was 590 nm.
6) Inhibition rate calculation formula: % inhibition rate=(1−(test hole minus background−positive control well minus background)/(negative control well minus background-positive control well minus background))*100
7) The data were analyzed with Prism. The IC50 of the sample against VAP-1 cells was calculated.

The structures appear in SMILES notation.

T1 sequence (Q16853 whole entry): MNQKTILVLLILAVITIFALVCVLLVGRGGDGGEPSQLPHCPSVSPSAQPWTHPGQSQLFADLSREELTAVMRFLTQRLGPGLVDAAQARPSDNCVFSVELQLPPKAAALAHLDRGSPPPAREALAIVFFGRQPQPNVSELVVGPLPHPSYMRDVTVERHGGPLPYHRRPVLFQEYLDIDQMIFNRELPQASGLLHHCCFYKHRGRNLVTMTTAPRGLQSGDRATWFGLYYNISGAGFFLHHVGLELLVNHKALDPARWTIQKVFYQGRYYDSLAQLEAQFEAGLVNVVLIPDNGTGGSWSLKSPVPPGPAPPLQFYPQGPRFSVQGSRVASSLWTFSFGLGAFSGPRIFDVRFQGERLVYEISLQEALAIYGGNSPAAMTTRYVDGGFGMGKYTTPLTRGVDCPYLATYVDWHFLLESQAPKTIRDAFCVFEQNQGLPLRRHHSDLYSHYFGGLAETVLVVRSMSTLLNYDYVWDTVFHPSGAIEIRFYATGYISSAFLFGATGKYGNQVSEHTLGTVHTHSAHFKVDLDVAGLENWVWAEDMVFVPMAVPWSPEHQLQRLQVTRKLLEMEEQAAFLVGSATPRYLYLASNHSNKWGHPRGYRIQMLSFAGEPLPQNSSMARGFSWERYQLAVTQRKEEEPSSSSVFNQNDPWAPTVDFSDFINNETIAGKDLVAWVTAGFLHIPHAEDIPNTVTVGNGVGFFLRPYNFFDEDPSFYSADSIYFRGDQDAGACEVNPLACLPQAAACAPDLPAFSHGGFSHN

Take `Cc1nnc(-c2ccc(OC/C(=C/F)CN)cc2)o1` [WX004]: the IC50 at VAP-1/SSAO [1] was 2.5 nM.
On the same count and under the same terms, the result for `Cc1n[nH]c(-c2ccc(OC/C(=C/F)CN)cc2)n1` [WX009] reads 3.7 nM.
For the molecule `CCn1nnc(-c2ccc(OC/C(=C/F)CN)cc2)n1` [WX014], the IC50 came out at 0.3 nM at VAP-1/SSAO [2] and 0.8 nM on VAP-1/SSAO [1].
In the same order, the values of `NC/C(=C\F)COc1ccc(-c2nc(C3CC3)no2)cc1` [WX016] are 0.2 nM and 1 nM.
With `NC/C(=C\F)COc1ccc(-c2nc(-c3ccccc3)no2)cc1` [WX017], the IC50 at VAP-1/SSAO [1] was found to be 0.8 nM.
The same measure, in the same setting: the result for `CC(C)(C)c1noc(-c2ccc(OC/C(=C/F)CN)cc2)n1` [WX019] reads 2 nM; that for `NC/C(=C\F)COc1ccc(-c2ncccn2)cc1` [WX021], 0.3 nM.
Same read-out and setting: as for `Cc1csc(-c2ccc(OC/C(=C/F)CN)cc2)n1` [WX022], the figure is 0.3 nM.
For `NC/C(=C\F)COc1ccc(-c2nc3ccccc3o2)cc1` [WX023], the IC50 at VAP-1/SSAO [1] is 0.4 nM.
Same read-out and setting: as for `Cc1ncc(-c2ccc(OC/C(=C/F)CN)cc2)s1` [WX024], the figure is 0.3 nM; as for `Cn1cnc(-c2ccc(OC/C(=C/F)CN)cc2)n1` [WX025], 0.9 nM.
The same measure, in the same setting: the result for `Cn1ncc(-c2ccc(OC/C(=C/F)CN)cc2)n1` [WX026] reads 0.3 nM; that for `Cc1nc(-c2ccc(OC/C(=C/F)CN)cc2)no1` [WX028], 0.7 nM.
The same measure, in the same setting: as for `NC/C(=C\F)COc1ccc(-c2noc3ccccc23)cc1` [WX033], the figure is 0.3 nM.
Take `NC/C(=C\F)COc1ccc(-c2nc(C3CC3)n[nH]2)cc1` [WX034]: the IC50 on VAP-1/SSAO [2] worked out at 0.4 nM; on VAP-1/SSAO [1], 0.8 nM.
`CC(C)(C)c1n[nH]c(-c2ccc(OC/C(=C/F)CN)cc2)n1` [WX035]: on VAP-1/SSAO [1], the IC50 is 2.3 nM.
Same read-out and setting: the result for `NC/C(=C\F)COc1ccc(-c2nc(C(F)(F)F)n[nH]2)cc1` [WX036] reads 4.6 nM; that for `Cc1coc(-c2ccc(OC/C(=C/F)CN)cc2)n1` [WX039], 0.5 nM.
Still for that read-out and setting: the result for `Cc1cnoc1-c1ccc(OC/C(=C/F)CN)cc1` [WX040] reads 0.5 nM; that for `Cc1cn[nH]c1-c1ccc(OC/C(=C/F)CN)cc1` [WX041], 0.6 nM.
Still for that read-out and setting: as for `CC(C)(C)NC(=O)c1noc(-c2ccc(OC/C(=C/F)CN)cc2)n1` [WX042], the figure is 1.6 nM; as for `NC/C(=C\F)COc1ccc(-c2noc(C3CC3)n2)cc1` [WX044], 0.5 nM.
As for `CC(C)(C)c1nc(-c2ccc(OC/C(=C/F)CN)cc2)no1` [WX045], at VAP-1/SSAO [1], the IC50 came out at 1.1 nM.
Still for that read-out and setting: as for `CC(C)(C)n1nnc(-c2ccc(OC/C(=C/F)CN)cc2)n1` [WX048], the figure is 0.6 nM; as for `NC/C(=C\F)COc1ccc(-c2nnn(C3CC3)n2)cc1` [WX049], 0.3 nM.
Take `NC/C(=C\F)COc1ccc(N2C(=O)C(=O)c3ccccc32)cc1` [WX052]: the IC50 on VAP-1/SSAO [1] was found to be 1.3 nM.
Still for that read-out and setting: as for `NC/C(=C\F)COc1ccc(-c2nc3ccc(Cl)cc3[nH]2)cc1` [WX054], the figure is 0.4 nM.
Same read-out and setting: the result for `NC/C(=C\F)COc1ccc(-c2nc(C3CC3)no2)c(Cl)c1` [WX056] reads 1.7 nM; that for `CS(=O)(=O)n1nc(C2CC2)nc1-c1ccc(OC/C(=C/F)CN)cc1` [WX062], 1.2 nM.
Still for that read-out and setting: the result for `NC/C(=C\F)COc1ccc(-c2nc(C3CCCC3)n[nH]2)cc1` [WX064] reads 0.8 nM; that for `NC/C(=C\F)COc1ccc(-c2nccc(N3CCOCC3)n2)cc1` [WX070], 1.1 nM; that for `NC/C(=C\F)COc1ccc(-c2nc(C(N)=O)n[nH]2)cc1` [WX072], 0.7 nM.
`NC/C(=C\F)COc1ccc(-c2nc(N3CCOCC3)n[nH]2)cc1` [WX073]: the IC50 at VAP-1/SSAO [1] turned out to be 0.9 nM.
On the same count and under the same terms, as for `NC/C(=C\F)COc1ccc(-c2nc(N)no2)cc1` [WX074], the figure is 1 nM; as for `Cn1nc(-c2ccc(OC/C(=C/F)CN)cc2)nc1C1CC1` [WX075], 0.7 nM.
Turning to `Cn1nc(C2CC2)nc1-c1ccc(OC/C(=C/F)CN)cc1` [WX076], the IC50 on VAP-1/SSAO [1] stood at 2.1 nM.
The same measure, in the same setting: the result for `CC(C)(C)C(=O)Nc1noc(-c2ccc(OC/C(=C/F)CN)cc2)n1` [WX077] reads 1.6 nM; that for `NC/C(=C\F)COc1ccc(-c2nnc(NC3CC3)o2)cc1` [WX079], 0.2 nM; that for `COc1ccc(Cn2nc(-c3ccc(OC/C(=C/F)CN)cc3)nc2NC2CC2)cc1` [WX080], 3.8 nM.
The same measure, in the same setting: as for `NC/C(=C\F)COc1ccc(-c2nc(NC3CC3)n[nH]2)cc1` [WX081], the figure is 0.5 nM; as for `NC/C(=C\F)COc1ccc(-c2nc(NC3CC3)no2)cc1` [WX082], 0.3 nM; as for `NC/C(=C\F)COc1ccc(-c2n[nH]c(C(CO)CCl)n2)cc1` (stereo not shown) [WX083], 0.4 nM.
`NC/C(=C\F)COc1ccc(-c2nc(C3CCC3)n[nH]2)cc1` [WX085]: the IC50 on VAP-1/SSAO [1] was found to be 0.2 nM.
Same read-out and setting: as for `NC/C(=C\F)COc1ccc(-c2nc(N3CCOCC3)cs2)cc1` [WX086], the figure is 9.9 nM.
With `NC/C(=C\F)COc1ccc(-c2nc(C3(F)CC3)n[nH]2)cc1` [WX087], the results for the IC50 at VAP-1/SSAO [2] and at VAP-1/SSAO [1] were 0.8 nM and 0.3 nM, respectively.
For `NC/C(=C\F)COc1ccc(-c2nc(C(F)F)n[nH]2)cc1` [WX088], in that order: 1.6 nM and 0.4 nM.
Regarding `Cn1nc(C(C)(C)C)nc1-c1ccc(OC/C(=C/F)CN)cc1` [WX089], the IC50 on VAP-1/SSAO [1] worked out at 1.9 nM.
On the same count and under the same terms, as for `Cn1nc(-c2ccc(OC/C(=C/F)CN)cc2)nc1C(C)(C)C` [WX090], the figure is 1.1 nM.
In the case of `CC(C)n1nc(-c2ccc(OC/C(=C/F)CN)cc2)nc1C1CC1` [WX091], the IC50 on VAP-1/SSAO [2] was 1.3 nM; on VAP-1/SSAO [1], 1.2 nM.
`CCn1nc(-c2ccc(OC/C(=C/F)CN)cc2)nc1C1CC1` [WX092]: the IC50 at VAP-1/SSAO [1] is 1.4 nM.
Regarding `NC/C(=C\F)COc1ccc(-c2nc(C3CCOCC3)n[nH]2)cc1` [WX093], the IC50 at VAP-1/SSAO [1] turned out to be 0.3 nM.
On the same count and under the same terms, as for `NC/C(=C\F)COc1ccc(-c2nc(C3CC3)n[nH]2)c(F)c1` [WX094], the figure is 0.3 nM.
Turning to `Cn1nc(-c2ccc(OC/C(=C/F)CN)cc2)nc1C1CCOCC1` [WX095], the IC50 at VAP-1/SSAO [2] turned out to be 0.2 nM; on VAP-1/SSAO [1], 2.9 nM.
As to `NC/C(=C\F)COc1ccc(-c2nc(C3CC3(F)F)n[nH]2)cc1` (stereo not shown) [WX096], at VAP-1/SSAO [1], the IC50 worked out at 0.8 nM.
Still for that read-out and setting: the result for `NC/C(=C\F)COc1cc(F)c(-c2nc(N3CCOCC3)n[nH]2)c(F)c1` [WX099] reads 3.4 nM.
The same measure, in the same setting: the result for `NC/C(=C\F)COc1ccc(-c2nc(N3CCOCC3)n[nH]2)c(F)c1` [WX100] reads 1.1 nM; that for `Cc1nc(-c2ccc(OC/C(=C/F)CN)cc2)sc1N1CCOCC1` [WX102], 0.4 nM; that for `NC/C(=C\F)COc1ccc(-c2nc(CC3CCCC3)n[nH]2)cc1` [WX103], 0.2 nM.
Consider `Cn1nc(-c2ccc(OC/C(=C/F)CN)cc2)nc1CC(F)(F)F` [WX105], for which, on VAP-1/SSAO [1], the IC50 turned out to be 0.5 nM.
Same read-out and setting: as for `CC1(C)CN=C(c2ccc(OC/C(=C/F)CN)cc2)N1` [WX106], the figure is 1.1 nM; as for `Cc1nc(-c2ccc(OC/C(=C/F)CN)cc2)sc1C` [WX111], 0.4 nM; as for `Cn1nc(-c2ccc(OC/C(=C/F)CN)cc2)nc1N1CCOCC1` [WX122], 1 nM.
The same measure, in the same setting: as for `CC(C)n1nc(-c2ccc(OC/C(=C/F)CN)cc2)nc1N1CCOCC1` [WX123], the figure is 2.2 nM; as for `CC(C)n1nc(-c2ccc(OC/C(=C/F)CN)cc2)nc1C(F)F` [WX124], 1.4 nM; as for `CCn1nc(-c2ccc(OC/C(=C/F)CN)cc2)nc1N1CCOCC1` [WX125], 1 nM.
Still for that read-out and setting: the result for `Cn1nc(-c2ccc(OC/C(=C/F)CN)cc2)nc1C1(F)CC1` [WX127] reads 0.8 nM; that for `CCn1nc(-c2ccc(OC/C(=C/F)CN)cc2)nc1C(F)F` [WX128], 1 nM; that for `CCn1nc(-c2ccc(OC/C(=C/F)CN)cc2)nc1C1(F)CC1` [WX129], 1 nM.
As for `CC(C)n1nc(-c2ccc(OCC(=CF)CN)cc2)nc1C1(F)CC1` [WX130], the IC50 on VAP-1/SSAO [1] is 1.4 nM.
